Source: ChEMBL document CHEMBL1201862, “PubChem BioAssay data set” (2004)
The source made the active and inactive calls.

Legend:
[1] = target: T1, Sentrin-specific protease 8 (Homo sapiens, UniProt Q96LD8); type: functional
T1 sequence (Q96LD8 whole entry): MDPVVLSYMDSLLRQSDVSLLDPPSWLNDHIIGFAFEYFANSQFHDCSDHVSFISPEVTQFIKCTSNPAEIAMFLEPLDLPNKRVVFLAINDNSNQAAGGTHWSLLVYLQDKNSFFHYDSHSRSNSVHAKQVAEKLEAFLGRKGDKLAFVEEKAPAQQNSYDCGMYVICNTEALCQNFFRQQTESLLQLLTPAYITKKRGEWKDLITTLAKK

[2] = target: T1, Sentrin-specific protease 8; type: functional; remark: listed apart in the source
[3] = blockers of HIV-1 envelope-mediated cell-cell fusion – cherry-pick, dose response (AID 652057); type: functional, cell-based
[4] = off-target signal loss in HeLa-CEM21 co-culture – HeLa F-luc CTL cells, cherry-picked, counter-screen for HIV-1 Env fusion inhibitor project, dose response (AID 652040); type: functional, cell-based;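 also: potency for signal decrease marking cytotoxic or nonspecific inhibition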
HeLa = assay: viability loss in HeLa cells – cell-based, ATP luminescence, cherry-pick samples, cytotoxicity control, dose response (AID 687004); type: functional; conditions: Homo sapiens
HEK293 [5] = assay: viability loss in HEK293T cells – cell-based, ATP luminescence, cherry-pick samples, cytotoxicity control, dose response (AID 687005); type: functional; conditions: Homo sapiens;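 also: cells exposed to compound for 48 hours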
[6] = HEK293 Cytotoxicity Assay Measured in Cell-Based System Using Plate Reader - 7071-01_Inhibitor_Dose_CherryPick_Activity_Set2.; type: functional
[7] = IC50 of Artemis nuclease activity blockers – biochemical, fluorescence intensity, dose response (AID 720701); type: functional;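 also: Artemis endonuclease enzyme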
[8] = target: 26S proteasome non-ATPase regulatory subunit 14 (Homo sapiens, UniProt O00487); assay: inhibition of proteasome subunit RPN11 – biochemical, fluorescence polarization, uHTS hits, confirmation (AID 602368); type: functional
[9] = target: 72 kDa type IV collagenase (Homo sapiens, UniProt P08253); assay: Dose Response validation of uHTS RPN11 inhibitor hits using a MMP-2 Fluorescence assay.; type: functional
Prothrombin = Prothrombin (Bos taurus, UniProt P00735); assay: thrombin protease inhibitors – biochemical, fluorescence polarization, uHTS hits, dose response (AID 602369); type: functional
[10] = target: T2, Apoptotic protease-activating factor 1 (Homo sapiens, UniProt O14727); type: functional
T2 sequence (O14727 whole entry): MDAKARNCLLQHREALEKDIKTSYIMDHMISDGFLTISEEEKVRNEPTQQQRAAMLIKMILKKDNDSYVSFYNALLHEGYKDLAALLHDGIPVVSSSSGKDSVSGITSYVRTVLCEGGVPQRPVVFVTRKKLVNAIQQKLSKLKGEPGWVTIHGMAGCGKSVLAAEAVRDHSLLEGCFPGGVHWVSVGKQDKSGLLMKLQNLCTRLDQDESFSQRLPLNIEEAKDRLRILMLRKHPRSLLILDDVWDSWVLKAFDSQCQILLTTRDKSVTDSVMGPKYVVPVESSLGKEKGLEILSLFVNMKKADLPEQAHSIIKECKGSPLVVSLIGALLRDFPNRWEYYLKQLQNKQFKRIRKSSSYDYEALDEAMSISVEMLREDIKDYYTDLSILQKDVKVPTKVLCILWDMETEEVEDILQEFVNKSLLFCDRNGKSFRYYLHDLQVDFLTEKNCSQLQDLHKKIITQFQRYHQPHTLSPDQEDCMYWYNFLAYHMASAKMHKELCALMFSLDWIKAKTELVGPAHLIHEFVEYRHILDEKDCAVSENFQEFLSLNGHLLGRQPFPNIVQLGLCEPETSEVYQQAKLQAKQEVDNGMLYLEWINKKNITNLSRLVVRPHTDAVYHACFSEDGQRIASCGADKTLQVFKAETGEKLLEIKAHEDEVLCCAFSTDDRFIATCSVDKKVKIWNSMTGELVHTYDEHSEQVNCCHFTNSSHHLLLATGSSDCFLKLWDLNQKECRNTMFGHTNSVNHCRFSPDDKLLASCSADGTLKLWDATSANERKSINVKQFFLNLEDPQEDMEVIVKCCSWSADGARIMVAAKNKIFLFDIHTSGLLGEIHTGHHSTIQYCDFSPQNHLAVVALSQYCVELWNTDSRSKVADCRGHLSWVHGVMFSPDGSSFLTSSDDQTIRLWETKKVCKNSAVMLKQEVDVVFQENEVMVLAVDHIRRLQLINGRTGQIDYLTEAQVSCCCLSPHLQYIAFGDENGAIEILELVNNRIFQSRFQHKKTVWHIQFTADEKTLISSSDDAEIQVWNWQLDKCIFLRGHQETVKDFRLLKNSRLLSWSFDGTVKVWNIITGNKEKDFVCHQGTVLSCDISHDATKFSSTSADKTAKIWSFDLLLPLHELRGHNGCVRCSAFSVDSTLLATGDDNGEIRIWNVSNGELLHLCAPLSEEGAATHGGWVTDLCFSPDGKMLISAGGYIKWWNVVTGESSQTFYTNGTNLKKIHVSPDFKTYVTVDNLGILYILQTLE

[11] = luciferase reporter signal suppression in cells – H4 neuroglioma cells, luminescence, dose response (AID 1990); type: functional, cell-based
[12] = Luminescence Cell-Based Dose Response HTS to Identify Inhibitors of 5'UTR Stem-Loop Driven Prion Protein mRNA Translation in H4 Neuroglioblastoma Cells. [Related pubchem assays: 1827 (Project Summary), 1813 (Primary HTS)]; type: functional
[13] = target: T3, Voltage-gated N-type calcium channel alpha-1B subunit/Amyloid beta A4 precursor protein-binding family A member 1 (Homo sapiens, UniProt Q00975+Q02410); type: protein assay
[14] = alpha-synuclein stem-loop luciferase translation blockers – H4 neuroglioma cells, luminescence, confirmation (AID 1988); type: functional, cell-based
[15] = target: T3, Voltage-gated N-type calcium channel alpha-1B subunit/Amyloid beta A4 precursor protein-binding family A member 1; type: protein assay; remark: listed apart in the source
[16] = blockers of HIV-1 ZM109 envelope-driven cell-cell fusion – HeLa effector, CEM target cells, luciferase, cherry-pick, dose response (AID 652058); type: functional, cell-based;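 also: luciferase signal from HIV-1 Env mediated cell-cell fusion of effector and target cells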
[17] = HIV-1 AD8 envelope cell-cell fusion blockers – cherry-pick, dose response (AID 652062); type: functional, cell-based;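 also: luciferase signal from cell-cell fusion driven by HIV-1 clade B AD8 Env; potency is for inhibitors of fusion seen as a drop in luminescence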
[18] = target: T4, Heat shock factor protein 1 (Mus musculus, UniProt P38532); assay: enhancement of HSF1-driven luciferase signal – cell-based, NIH3T3, luminescence, dose retest, confirmation (AID 435004); type: functional;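 also: stress induced by proteasome inhibitor MG132 added 30 min after compound; luciferase reporter driven by HSF1 response element in NIH3T3 cells; actives raise luminescence as potentiators of the MG132 stress response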
T4 sequence (P38532 whole entry): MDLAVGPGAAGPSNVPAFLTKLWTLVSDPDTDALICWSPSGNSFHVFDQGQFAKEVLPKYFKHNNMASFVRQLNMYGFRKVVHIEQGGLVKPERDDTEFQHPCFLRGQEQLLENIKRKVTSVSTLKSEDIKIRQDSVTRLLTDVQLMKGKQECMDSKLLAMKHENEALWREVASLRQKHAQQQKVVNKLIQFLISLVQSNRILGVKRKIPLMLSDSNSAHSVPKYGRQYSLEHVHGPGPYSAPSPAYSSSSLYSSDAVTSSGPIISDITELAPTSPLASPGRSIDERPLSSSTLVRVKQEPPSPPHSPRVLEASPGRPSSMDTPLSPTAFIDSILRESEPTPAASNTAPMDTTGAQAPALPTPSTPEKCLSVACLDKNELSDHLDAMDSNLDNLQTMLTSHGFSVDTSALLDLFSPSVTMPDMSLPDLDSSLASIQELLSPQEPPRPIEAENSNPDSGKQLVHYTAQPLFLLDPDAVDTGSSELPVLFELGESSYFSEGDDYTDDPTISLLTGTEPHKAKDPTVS

HEK293 [19] = assay: EBV LMP1 TES2 canonical NF-kB signalling blockers – cell-based, HEK293, luciferase, cherry-pick, dose response (AID 588343); type: functional; conditions: Homo sapiens
[20] = A549 cell cytotoxicity, dose response, cytotoxicity control, plate reader, cherry-pick, antagonist series (AID 743412); type: functional, cell-based
[21] = blockers of bursicon-stimulated LGR2 cAMP reporter – cell-based, HEK293, CRE-luciferase reporter, cherry pick, set 2, dose response (AID 743343); type: functional;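 also: transfected cells were stimulated with diluted bursicon conditioned medium after compound addition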
[22] = blockade of melanocortin 4 receptor signaling – cell-based, plate reader, cherry pick, counter-screen for LGR2 antagonist project, dose response (AID 743444); type: functional;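 also: transfected HEK 293 cells stimulated with alpha-MSH peptide; potency of inhibitors of the alpha-MSH evoked signal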
[23] = viability loss in HEK293 cells – cell-based, plate reader, cherry-picked samples, cytotoxicity control, dose response (AID 743446); type: functional
Mu-type opioid receptor = Mu-type opioid receptor (Homo sapiens, UniProt P35372); type: functional, cell-based;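 also: U2OS cells with beta-arrestin recruitment to OPRM1 by beta-gal complementation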
[24] = target: 5-hydroxytryptamine receptor 2A (Mus musculus, UniProt P35363); type: functional, cell-based;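 also: CHO-K1 cells with tagged receptor and beta-arrestin; agonist potency measured as compound-induced activation of the receptor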
[25] = tested on: Streptococcus sp. 'group A'; assay: Streptococcus pyogenes SK(-)GAS viability under kanamycin – luminescence, BacTiterGlo, confirmation, counter-screen for streptokinase expression inhibitor project, dose response (AID 1900); type: functional, organism-based
Streptococcus = assay: GAS UMAA2166 growth inhibition – luminescence, BacTiterGlo, counter-screen for streptokinase expression inhibitor project, dose response (AID 1915); type: functional, organism-based;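 also: potency for reduction of bacterial viability or growth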
[26] = Luminescence Cell-Based Dose Retest to Confirm Inhibitors of Cancer Stem Cells. [Related pubchem assays (depositor defined):AID2717, AID2721]; type: functional, Homo sapiens; conditions: Homo sapiens
[27] = target: NAD-dependent protein deacylase sirtuin-5, mitochondrial (Homo sapiens, UniProt Q9NXA8); assay: sirtuin-5 deacylation blockers, concentration series – biochemical, fluorescence imaging, cherry-pick, set 5, dose response (AID 720591);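 also: desuccinylation of succinyl peptide AMC substrate read as fluorescence after trypsin release; potency of inhibitors that lower fluorescence and may act on trypsin instead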

Chain of Mu-type opioid receptor (P35372 whole entry): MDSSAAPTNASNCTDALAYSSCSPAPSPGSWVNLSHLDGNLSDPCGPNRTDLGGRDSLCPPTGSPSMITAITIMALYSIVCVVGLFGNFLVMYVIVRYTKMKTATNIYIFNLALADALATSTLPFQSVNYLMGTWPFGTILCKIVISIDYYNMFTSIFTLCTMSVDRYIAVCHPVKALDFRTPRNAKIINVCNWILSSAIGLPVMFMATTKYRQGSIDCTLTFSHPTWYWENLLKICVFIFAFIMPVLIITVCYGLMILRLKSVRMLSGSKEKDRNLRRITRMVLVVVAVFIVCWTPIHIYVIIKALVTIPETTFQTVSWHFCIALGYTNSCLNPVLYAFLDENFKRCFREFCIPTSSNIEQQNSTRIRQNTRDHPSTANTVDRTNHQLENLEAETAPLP
Chain of 5-hydroxytryptamine receptor 2A (P35363 whole entry): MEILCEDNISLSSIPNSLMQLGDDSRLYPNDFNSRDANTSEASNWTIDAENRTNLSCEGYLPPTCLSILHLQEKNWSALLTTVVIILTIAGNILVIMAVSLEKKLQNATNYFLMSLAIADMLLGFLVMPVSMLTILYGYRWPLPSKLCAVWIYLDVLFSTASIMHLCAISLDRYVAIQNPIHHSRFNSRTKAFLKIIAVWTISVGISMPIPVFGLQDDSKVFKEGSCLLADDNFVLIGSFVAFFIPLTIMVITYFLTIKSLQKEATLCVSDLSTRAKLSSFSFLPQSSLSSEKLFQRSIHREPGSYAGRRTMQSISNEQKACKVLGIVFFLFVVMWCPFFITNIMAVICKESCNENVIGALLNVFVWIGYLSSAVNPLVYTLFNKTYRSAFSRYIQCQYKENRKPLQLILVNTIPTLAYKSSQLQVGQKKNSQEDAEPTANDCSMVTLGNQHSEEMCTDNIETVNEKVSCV
Chain of 72 kDa type IV collagenase (P08253 whole entry): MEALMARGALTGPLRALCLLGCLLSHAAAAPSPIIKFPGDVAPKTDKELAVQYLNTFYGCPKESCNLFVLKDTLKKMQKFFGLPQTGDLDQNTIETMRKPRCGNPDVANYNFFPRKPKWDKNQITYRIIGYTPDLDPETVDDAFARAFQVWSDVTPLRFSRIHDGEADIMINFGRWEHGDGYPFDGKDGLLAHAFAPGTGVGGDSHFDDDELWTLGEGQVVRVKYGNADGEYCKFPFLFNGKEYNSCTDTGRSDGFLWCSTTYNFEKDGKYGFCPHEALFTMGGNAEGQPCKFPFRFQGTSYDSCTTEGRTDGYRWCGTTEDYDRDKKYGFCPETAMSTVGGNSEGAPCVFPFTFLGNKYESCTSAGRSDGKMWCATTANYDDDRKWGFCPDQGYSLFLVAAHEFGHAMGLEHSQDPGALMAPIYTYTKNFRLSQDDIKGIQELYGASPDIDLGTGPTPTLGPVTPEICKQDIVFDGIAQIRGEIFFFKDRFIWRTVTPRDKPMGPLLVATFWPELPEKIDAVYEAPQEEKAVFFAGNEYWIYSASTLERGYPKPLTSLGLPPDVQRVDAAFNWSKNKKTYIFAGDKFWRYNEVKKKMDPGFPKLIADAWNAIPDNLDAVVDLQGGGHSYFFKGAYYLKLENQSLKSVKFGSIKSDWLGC
Chain of 26S proteasome non-ATPase regulatory subunit 14 (O00487 whole entry): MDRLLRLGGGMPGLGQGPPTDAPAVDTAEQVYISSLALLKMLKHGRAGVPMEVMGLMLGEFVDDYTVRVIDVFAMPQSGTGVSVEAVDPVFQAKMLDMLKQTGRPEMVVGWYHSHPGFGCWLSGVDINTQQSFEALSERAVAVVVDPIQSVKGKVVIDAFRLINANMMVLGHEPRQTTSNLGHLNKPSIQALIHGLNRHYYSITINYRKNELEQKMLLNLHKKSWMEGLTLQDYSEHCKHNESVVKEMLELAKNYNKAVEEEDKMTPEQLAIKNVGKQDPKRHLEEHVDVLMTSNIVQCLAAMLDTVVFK
T3 sequence (Q00975 whole entry): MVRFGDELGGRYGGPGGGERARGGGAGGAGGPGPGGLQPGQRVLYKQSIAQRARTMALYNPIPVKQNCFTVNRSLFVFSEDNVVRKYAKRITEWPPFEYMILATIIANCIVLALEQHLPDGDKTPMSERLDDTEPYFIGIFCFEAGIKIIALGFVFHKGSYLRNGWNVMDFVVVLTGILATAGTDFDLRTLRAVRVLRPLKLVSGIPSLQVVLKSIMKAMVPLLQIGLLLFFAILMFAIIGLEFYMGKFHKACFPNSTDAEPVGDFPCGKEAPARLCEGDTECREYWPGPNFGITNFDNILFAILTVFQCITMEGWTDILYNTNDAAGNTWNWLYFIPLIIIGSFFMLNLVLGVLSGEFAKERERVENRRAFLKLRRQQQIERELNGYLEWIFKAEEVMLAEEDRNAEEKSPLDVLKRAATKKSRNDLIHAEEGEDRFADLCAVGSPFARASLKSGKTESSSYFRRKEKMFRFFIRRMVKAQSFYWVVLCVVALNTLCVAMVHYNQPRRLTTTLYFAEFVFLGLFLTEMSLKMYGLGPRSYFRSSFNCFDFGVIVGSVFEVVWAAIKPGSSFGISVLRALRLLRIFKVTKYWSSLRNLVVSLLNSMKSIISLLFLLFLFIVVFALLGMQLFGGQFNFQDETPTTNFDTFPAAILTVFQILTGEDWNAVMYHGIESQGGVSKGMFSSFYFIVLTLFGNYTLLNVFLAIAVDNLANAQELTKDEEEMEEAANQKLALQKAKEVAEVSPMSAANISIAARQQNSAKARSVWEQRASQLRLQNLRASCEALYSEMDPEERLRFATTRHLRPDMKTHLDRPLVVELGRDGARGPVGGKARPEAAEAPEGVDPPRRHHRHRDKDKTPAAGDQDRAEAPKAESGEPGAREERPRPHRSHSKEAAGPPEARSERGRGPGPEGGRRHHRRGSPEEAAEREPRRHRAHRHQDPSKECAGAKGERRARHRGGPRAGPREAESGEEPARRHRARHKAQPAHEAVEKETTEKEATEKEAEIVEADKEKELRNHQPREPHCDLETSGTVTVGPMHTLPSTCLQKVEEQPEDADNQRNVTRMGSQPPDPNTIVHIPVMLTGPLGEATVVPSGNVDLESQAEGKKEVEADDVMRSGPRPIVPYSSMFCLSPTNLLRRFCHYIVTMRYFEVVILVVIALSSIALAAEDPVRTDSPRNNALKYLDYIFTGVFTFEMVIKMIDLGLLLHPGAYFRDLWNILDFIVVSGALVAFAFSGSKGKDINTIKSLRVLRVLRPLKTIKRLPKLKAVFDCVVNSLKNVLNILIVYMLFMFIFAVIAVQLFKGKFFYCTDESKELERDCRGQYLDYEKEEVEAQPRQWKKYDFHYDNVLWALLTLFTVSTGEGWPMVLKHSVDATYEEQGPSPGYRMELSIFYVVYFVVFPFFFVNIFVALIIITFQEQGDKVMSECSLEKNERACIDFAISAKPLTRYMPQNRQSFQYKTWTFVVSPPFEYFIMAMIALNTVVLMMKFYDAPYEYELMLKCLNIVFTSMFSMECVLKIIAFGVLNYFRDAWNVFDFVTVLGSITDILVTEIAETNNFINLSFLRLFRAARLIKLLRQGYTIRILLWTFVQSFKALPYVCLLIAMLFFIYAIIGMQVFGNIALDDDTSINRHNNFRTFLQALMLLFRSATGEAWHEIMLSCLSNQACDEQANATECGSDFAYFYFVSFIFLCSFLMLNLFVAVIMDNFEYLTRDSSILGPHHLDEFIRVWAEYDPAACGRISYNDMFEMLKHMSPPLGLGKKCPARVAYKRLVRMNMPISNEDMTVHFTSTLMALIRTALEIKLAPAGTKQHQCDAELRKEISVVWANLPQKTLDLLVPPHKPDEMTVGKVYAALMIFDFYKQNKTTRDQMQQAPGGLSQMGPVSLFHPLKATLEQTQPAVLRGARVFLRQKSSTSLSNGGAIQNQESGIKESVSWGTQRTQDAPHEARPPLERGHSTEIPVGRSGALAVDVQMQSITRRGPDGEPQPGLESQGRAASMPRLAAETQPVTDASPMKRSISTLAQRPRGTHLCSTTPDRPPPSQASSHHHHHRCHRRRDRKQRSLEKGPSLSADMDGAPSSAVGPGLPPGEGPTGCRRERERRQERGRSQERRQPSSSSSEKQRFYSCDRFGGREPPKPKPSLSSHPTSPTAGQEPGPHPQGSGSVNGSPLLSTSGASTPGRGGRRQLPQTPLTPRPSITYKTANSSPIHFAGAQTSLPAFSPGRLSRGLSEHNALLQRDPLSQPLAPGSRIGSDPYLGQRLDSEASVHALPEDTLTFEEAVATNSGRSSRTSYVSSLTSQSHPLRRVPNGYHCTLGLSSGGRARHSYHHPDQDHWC
T3 sequence (Q02410 whole entry): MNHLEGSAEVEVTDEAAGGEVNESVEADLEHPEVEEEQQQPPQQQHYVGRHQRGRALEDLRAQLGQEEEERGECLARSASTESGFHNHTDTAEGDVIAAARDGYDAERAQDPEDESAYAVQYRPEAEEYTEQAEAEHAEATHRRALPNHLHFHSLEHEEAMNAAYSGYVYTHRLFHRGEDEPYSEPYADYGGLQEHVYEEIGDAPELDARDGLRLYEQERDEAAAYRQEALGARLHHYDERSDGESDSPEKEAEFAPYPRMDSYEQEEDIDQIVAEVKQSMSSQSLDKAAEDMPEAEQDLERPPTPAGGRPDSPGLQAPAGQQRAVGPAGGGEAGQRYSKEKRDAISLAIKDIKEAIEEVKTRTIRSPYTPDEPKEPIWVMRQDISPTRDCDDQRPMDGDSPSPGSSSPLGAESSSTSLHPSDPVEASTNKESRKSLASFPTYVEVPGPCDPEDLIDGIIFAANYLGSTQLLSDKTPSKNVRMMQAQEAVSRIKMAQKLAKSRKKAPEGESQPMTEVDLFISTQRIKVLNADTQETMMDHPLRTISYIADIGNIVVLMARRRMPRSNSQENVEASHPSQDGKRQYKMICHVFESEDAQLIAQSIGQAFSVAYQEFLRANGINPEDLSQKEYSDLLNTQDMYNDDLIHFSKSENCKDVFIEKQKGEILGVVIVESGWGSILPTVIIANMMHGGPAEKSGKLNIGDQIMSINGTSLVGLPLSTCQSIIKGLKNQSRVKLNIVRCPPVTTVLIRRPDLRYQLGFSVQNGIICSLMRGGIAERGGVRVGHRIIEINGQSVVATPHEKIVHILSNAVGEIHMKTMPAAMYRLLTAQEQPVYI

## Cc1cc(N2C(=O)Cc3ccccc3C2=O)ccc1C(C)C
[1]
  IC50: > 100 µM (inactive)
[2]
  IC50: 4.5 µM (active)

## Cc1ccc2c(c1)c1c3n2CCN(CCC#N)C3CCC1 (configuration not stated)
[3]
  AC50: 12.9 µM (active)
[4]
  AC50: 1.89 µM (active)

## C/C=C/c1ccc([C@@H]2[C@H]3CN(C(=O)Nc4ccc(OC)cc4)CCCCN3[C@H]2CO)cc1
HeLa
  AC50: > 52 µM (inactive)
HEK293 [5]
  AC50: 24.4 µM (active)
[6]
  AC50: 24.4 µM (active)

## O=C(N/N=C/c1cccs1)c1cc(-c2ccc3ccccc3c2)[nH]n1
[7]
  IC50: > 20 µM (inactive)

## Cc1[nH]c2ccccc2c1/C=C/C(=O)c1ccncc1
[8]
  IC50: 38.8 µM (active)
[9]
  IC50: > 100 µM (inactive)
Prothrombin
  IC50: 48.4 µM (active)

## O=C(Nc1cccc(C(F)(F)F)c1)c1ccc2nc(-c3ccco3)c(-c3ccco3)nc2c1
[10]
  IC50: 43.9 µM (active)
[7]
  IC50: > 20 µM (inactive)

## CCOC(=O)c1nn(-c2ccc(C)c(C)c2)c(=O)c2c(N)scc12
[11]
  EC50: 13.8 µM (active)
[12]
  EC50: > 120 µM (not active)
[13]
  IC50: 9.97 µM (active)
[14]
  EC50: > 120 µM (not active)
[15]
  IC50: > 50 µM (inactive)
[10]
  IC50: 42.2 µM (active)
[1]
  IC50: 5.03 µM (active)
[2]
  IC50: 5.63 µM (active)

## O=C(NC12CC3CC(CC(C3)C1)C2)OCCNC1CCCCC1
[3]
  AC50: 2.91 µM (active)
[16]
  AC50: 6.43 µM (active)
[4]
  AC50: 4.34 µM (active)
[17]
  AC50: 7.98 µM (active)

## CC(C)NC(=O)Nc1ccc2c(c1)C(=O)N([C@@H](C)CO)C[C@@H](C)[C@@H](CN(C)S(=O)(=O)c1ccc(Cl)cc1)OCCCC[C@@H](C)O2
HEK293 [5]
  AC50: 20.6 µM (active)
[6]
  AC50: 20.6 µM (active)

## C[C@@H]1CN([C@H](C)CO)C(=O)c2cc(NC(=O)Nc3cccc4ccccc34)ccc2O[C@@H]1CN(C)C(=O)Nc1ccccc1
HeLa
  AC50: 22.8 µM (active)

## CC(=O)C1=C(C)NC2(O)c3ccccc3C(=O)C12O (configuration not stated)
[18]
  EC50: > 260 µM (inactive)
[1]
  IC50: 11.1 µM (active)
[2]
  IC50: 22.4 µM (active)

## CCCCC(=O)Nc1ccc(N2CCCC2)cc1
[7]
  IC50: > 20 µM (inactive)

## Cc1ccc(C(=O)Nc2ccc3ncccc3c2)cc1
HEK293 [19]
  AC50: 1.6 µM (active)
HeLa
  AC50: > 52 µM (inactive)
HEK293 [5]
  AC50: 20.5 µM (active)
[20]
  AC50: > 52 µM (inactive)
[21]
  AC50: 1.96 µM (active)
[22]
  AC50: 3.88 µM (active)
[6]
  AC50: 20.5 µM (active)
[23]
  AC50: > 52 µM (inactive)

## COc1ccc(CN2CCN(C(=O)c3ccco3)CC2)cc1OCc1ccccc1
Mu-type opioid receptor
  EC50: 92.5 µM (inactive)
[24]
  EC50: 1.48 µM (active)

## O=C(CSc1nc(O)c2c(C(F)(F)F)cc(-c3cccs3)nc2n1)Nc1ccc(F)c(F)c1
[25]
  EC50: 1.12 µM (active)
Streptococcus
  EC50: 2.58 µM (active)
[26]
  AC50: 1.27 µM (active)
[8]
  IC50: 42.7 µM (active)
[9]
  IC50: > 100 µM (inactive)
Prothrombin
  IC50: 79.4 µM (active)

## Cc1c(C(=O)OCC(O)=C(C#N)c2nc3ccccc3[nH]2)oc2ccc(Br)cc12
[27]
  AC50: > 30 µM (inactive)

## COc1ccc2ccccc2c1CN1CCN(C(=O)c2ccco2)CC1
Mu-type opioid receptor
  EC50: 92.5 µM (inactive)
[24]
  EC50: 1.77 µM (active)

## O=C(NCCO)Nc1ccc(Cl)cc1
[27]
  AC50: > 30 µM (inactive)

## CCn1c(N2CCN(S(=O)(=O)c3ccc(OC)cc3)CC2)nc2ccccc21
Mu-type opioid receptor
  EC50: 92.5 µM (inactive)
[24]
  EC50: 30 µM (inactive)

## Cc1ccc(S(=O)(=O)Nc2ccc3c(c2)CC(=O)N([C@H](C)CO)C[C@H](C)[C@H](CN(C)Cc2ccc(Cl)c(Cl)c2)O3)cc1
[20]
  AC50: 24.7 µM (active)
[22]
  AC50: 32.4 µM (active)
[23]
  AC50: > 47 µM (inactive)
